From ChEMBL document CHEMBL3621142, “Discovery and Evaluation of Clinical Candidate AZD3759, a Potent, Oral Active, Central Nervous System-Penetrant, Epidermal Growth Factor Receptor Tyrosine Kinase Inhibitor” (J Med Chem, 2015)

Assays:
[1] = AUC (0 to 7 hrs) in Han Wistar rat brain at 2 mg/kg, po by LC-MS/MS analysis; assay type: ADME, organism-based; design: dose 2 mg/kg, time < 7 hr, route oral; conditions: Han Wistar, brain
[2] = Ratio of unbound AUC (0 to 7 hrs) in brain to blood of Han Wistar rat at 2 mg/kg, po by LC-MS/MS analysis; assay type: ADME, organism-based; conditions: Han Wistar, brain and blood, read-out: K(p,uu,brain)
[3] = AUC (0 to 7 hrs) in Han Wistar rat CSF at 2 mg/kg, po by LC-MS/MS analysis; assay type: ADME, organism-based, Cerebrospinal fluid; design: time < 7 hr, dose 2 mg/kg, route oral; conditions: Han Wistar, CSF
[4] = AUC (0 to 7 hrs) in Han Wistar rat blood at 2 mg/kg, po by LC-MS/MS analysis; assay type: ADME, organism-based; design: dose 2 mg/kg, time < 7 hr, route oral; conditions: Han Wistar, blood
[5] = Fraction unbound in Han Wistar rat brain at 5 uM by equilibrium dialysis method; assay type: ADME, tissue-based; conditions: Han Wistar, brain
[6] = Permeability from apical to basolateral side in MDCK2-MDR1 cells; assay type: ADME, cell-based, Canis lupus familiaris, MDCK-II; conditions: dog, MDCK-MDR1
MDR1 (P-gp) = assay: Efflux ratio of permeability from basolateral to apical side over apical to basolateral side in MDCK2-MDR1 cells; assay type: ADME, cell-based, Canis lupus familiaris; conditions: dog, MDCK-MDR1
[7] = Ratio of unbound AUC (0 to 7 hrs) in CSF to blood of Han Wistar rat at 2 mg/kg, po by LC-MS/MS analysis; assay type: ADME, organism-based; conditions: Han Wistar, CSF and blood
[8] = target: Epidermal growth factor receptor (Homo sapiens, UniProt P00533, L858R); assay type: cell-based, H3255
Chain of Epidermal growth factor receptor (P00533 25-1210 L858R limits assumed): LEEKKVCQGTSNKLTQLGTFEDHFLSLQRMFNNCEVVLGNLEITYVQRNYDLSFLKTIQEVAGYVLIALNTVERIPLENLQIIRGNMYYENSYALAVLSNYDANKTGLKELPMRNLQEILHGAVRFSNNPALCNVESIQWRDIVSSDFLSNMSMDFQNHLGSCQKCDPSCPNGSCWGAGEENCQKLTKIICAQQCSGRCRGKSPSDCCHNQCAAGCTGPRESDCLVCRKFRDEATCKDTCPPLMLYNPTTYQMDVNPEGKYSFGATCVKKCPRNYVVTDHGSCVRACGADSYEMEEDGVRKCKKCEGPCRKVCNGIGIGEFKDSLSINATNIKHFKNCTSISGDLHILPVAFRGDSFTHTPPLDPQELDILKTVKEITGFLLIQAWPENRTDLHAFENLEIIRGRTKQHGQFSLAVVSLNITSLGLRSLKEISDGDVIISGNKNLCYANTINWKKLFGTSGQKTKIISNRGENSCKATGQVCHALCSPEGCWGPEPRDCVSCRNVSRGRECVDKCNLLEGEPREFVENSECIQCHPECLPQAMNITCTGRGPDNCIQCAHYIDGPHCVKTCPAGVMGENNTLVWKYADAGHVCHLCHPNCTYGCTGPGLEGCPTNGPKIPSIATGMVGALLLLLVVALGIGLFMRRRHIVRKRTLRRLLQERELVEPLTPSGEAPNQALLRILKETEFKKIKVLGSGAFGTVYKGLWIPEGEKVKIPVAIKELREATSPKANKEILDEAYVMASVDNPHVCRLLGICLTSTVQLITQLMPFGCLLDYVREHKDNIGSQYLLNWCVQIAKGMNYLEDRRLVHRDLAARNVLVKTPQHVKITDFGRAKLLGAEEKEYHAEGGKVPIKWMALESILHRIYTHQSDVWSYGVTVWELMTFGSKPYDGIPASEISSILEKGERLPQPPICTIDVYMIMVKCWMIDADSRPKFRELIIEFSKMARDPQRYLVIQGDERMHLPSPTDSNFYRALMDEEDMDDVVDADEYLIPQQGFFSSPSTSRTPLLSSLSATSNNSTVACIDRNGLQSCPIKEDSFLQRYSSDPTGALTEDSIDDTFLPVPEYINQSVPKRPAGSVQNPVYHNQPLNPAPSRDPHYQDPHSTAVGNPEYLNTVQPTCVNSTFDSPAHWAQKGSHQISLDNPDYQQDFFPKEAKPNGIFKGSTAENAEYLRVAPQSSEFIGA

[9] = Fraction unbound in Han Wistar rat blood at 5 uM by equilibrium dialysis method; assay type: ADME, tissue-based; conditions: Han Wistar
[10] = Clearance in Han Wistar rat at 1 mg/kg, iv; assay type: ADME, organism-based; conditions: in vivo
[11] = AUC(0 to 24 hrs) in Han Wistar rat at 2 mg/kg, po; assay type: ADME, organism-based; design: dose 2 mg/kg, time < 24 hr, route oral; conditions: Han Wistar, in vivo
[12] = Oral bioavailability in Han Wistar rat at 2 mg/kg; assay type: ADME, organism-based; conditions: Han Wistar, in vivo
[13] = Volume of distribution at steady state in Han Wistar rat at 1 mg/kg, iv; assay type: ADME, organism-based; conditions: Han Wistar, in vivo, read-out: Vdss
[14] = Elimination half life in Han Wistar rat at 1 mg/kg, iv; assay type: ADME, organism-based; conditions: Han Wistar, in vivo, read-out: beta t1/2 (converted)

AUC(0-t) at 7 h [1] [µM·h] | Kp uu [2] | AUC(0-t) at 7 h [3] [µM·h] | AUC(0-t) at 7 h [4] [µM·h] | fraction unbound at 5 µM [5] | Papp A→B [6] [×10⁻⁶ cm/s] | Kp uu [7] | fraction unbound at 5 µM [9] | SMILES | efflux ratio (MDR1 (P-gp)) | IC50 [8] [nM] | clearance [10] [mL/min/kg] | AUC(0-t) at 24 h [11] [µM·h] | bioavailability [12] [%] | Vd [13] [L/kg] | half-life [14] [h]
0.085 | 0.42 | 0.001 | 0.077 | 0.0083 | 29 | 0.79 | 0.022 | COc1cc2ncnc(Nc3ccc(F)c(Cl)c3)c2cc1N1CCOCC1 | 0.18 | 1.5 |  |  |  |  | 
0.104 | 1.7 | 0.005 | 0.042 | 0.026 | 42 | 3.4 | 0.038 | COc1cc2ncnc(Nc3cccc(Cl)c3F)c2cc1OC(=O)N1CCOCC1 | 0.58 | 4.1 |  |  |  |  | 
0.085 | 0.96 | 0.002 | 0.033 | 0.022 | 32 | 0.93 | 0.058 | COc1cc2ncnc(Nc3cccc(Cl)c3F)c2cc1N1CCOCC1 | 0.29 | 1.5 |  |  |  |  | 
1.94 | 1.6 | 0.048 | 0.805 | 0.015 | 51 | 2.6 | 0.023 | COc1cc2ncnc(Nc3cccc(Cl)c3F)c2cc1OC(=O)N1CCN(C)C[C@@H]1C |  |  | 29 | 2.95 | 83 | 2.7 | 2.4
0.101 | 0.03 | 0.046 | 1.63 | 0.088 | 28 | 0.16 | 0.17 | COc1cc2ncnc(Nc3cccc(Cl)c3F)c2cc1C(=O)N1CCOCC1 | 2.9 | 166 |  |  |  |  | 

SMILES | AUC(0-t) at 7 h [1] [µM·h] | Kp uu [2] | AUC(0-t) at 7 h [3] [µM·h] | AUC(0-t) at 7 h [4] [µM·h] | fraction unbound at 5 µM [5] | Papp A→B [6] [×10⁻⁶ cm/s] | Kp uu [7] | fraction unbound at 5 µM [9] | efflux ratio (MDR1 (P-gp)) | IC50 [8] [nM] | clearance [10] [mL/min/kg] | AUC(0-t) at 24 h [11] [µM·h] | bioavailability [12] [%] | Vd [13] [L/kg] | half-life [14] [h]
COc1cc2ncnc(Nc3cccc(Cl)c3F)c2cc1OC(=O)N1CC[C@@H](N(C)C)C1 | 2.04 | 0.27 | 0.075 | 3 | 0.023 | 47 | 0.43 | 0.058 | 0.76 | 1.1 |  |  |  |  | 
COc1cc2ncnc(Nc3cccc(Cl)c3F)c2cc1OC(=O)N1CC[C@H](N(C)C)C1 | 0.798 | 0.15 | 0.068 | 2.48 | 0.024 | 17 | 0.56 | 0.049 | 0.34 | 2.7 |  |  |  |  | 
COc1cc2ncnc(Nc3cccc(Cl)c3F)c2cc1OC(=O)N1CCN(C)[C@@H](C)C1 | 0.278 | 0.84 | 0.019 | 0.157 | 0.016 | 59 | 3.5 | 0.035 | 1.5 | 16.9 | 26 | 0.789 | 24 | 1.9 | 1.1
COc1cc2ncnc(Nc3cccc(Cl)c3F)c2cc1OC(=O)N1CCN(C)[C@H](C)C1 | 0.417 | 0.28 | 0.007 | 0.404 | 0.018 | 54 | 0.28 | 0.064 | 0.94 | 21.5 | 55 | 1.04 | 92 | 3.2 | 1.3
